Patent US20160287666A1 (priority 2015, published 2016)
Ends that are not written are not given here.

Key:
[1] = biological target: T1, human Nav1.6 (Homo sapiens, UniProt Q9UQD0); assay type: cell-based
[2] = test system: CFA-induced thermal hyperalgesia; parameters: species or system mice; settings: mouse, in vivo; for CFA-induced thermal hyperalgesia (thermal latency, Hargreaves test): sc
[3] = test system: CFA-induced tactile allodynia; parameters: species or system mice; settings: mouse, in vivo
[4] = test system: thermal pain; parameters: species or system mice; settings: in vivo
[5] = test system: carrageenan-induced thermal hyperalgesia; parameters: species or system mice; settings: mouse, in vivo
[6] = test system: acute thermal pain; settings: rat, in vivo
[7] = test system: acute thermal pain; settings: rat, in vivo; remark: listed apart in the source
[8] = test system: injury-induced pain (formalin); settings: rat, in vivo
[9] = biological target: T1, human Nav1.6; test: cell-based or functional assay
[10] = biological target: human Nav1.7 (human) (UniProt Q15858); test: cell-based or functional assay
[11] = biological target: human Nav1.7 (Homo sapiens, UniProt Q15858, W1161R); assay type: cell-based

T1 sequence (Q9UQD0 whole entry): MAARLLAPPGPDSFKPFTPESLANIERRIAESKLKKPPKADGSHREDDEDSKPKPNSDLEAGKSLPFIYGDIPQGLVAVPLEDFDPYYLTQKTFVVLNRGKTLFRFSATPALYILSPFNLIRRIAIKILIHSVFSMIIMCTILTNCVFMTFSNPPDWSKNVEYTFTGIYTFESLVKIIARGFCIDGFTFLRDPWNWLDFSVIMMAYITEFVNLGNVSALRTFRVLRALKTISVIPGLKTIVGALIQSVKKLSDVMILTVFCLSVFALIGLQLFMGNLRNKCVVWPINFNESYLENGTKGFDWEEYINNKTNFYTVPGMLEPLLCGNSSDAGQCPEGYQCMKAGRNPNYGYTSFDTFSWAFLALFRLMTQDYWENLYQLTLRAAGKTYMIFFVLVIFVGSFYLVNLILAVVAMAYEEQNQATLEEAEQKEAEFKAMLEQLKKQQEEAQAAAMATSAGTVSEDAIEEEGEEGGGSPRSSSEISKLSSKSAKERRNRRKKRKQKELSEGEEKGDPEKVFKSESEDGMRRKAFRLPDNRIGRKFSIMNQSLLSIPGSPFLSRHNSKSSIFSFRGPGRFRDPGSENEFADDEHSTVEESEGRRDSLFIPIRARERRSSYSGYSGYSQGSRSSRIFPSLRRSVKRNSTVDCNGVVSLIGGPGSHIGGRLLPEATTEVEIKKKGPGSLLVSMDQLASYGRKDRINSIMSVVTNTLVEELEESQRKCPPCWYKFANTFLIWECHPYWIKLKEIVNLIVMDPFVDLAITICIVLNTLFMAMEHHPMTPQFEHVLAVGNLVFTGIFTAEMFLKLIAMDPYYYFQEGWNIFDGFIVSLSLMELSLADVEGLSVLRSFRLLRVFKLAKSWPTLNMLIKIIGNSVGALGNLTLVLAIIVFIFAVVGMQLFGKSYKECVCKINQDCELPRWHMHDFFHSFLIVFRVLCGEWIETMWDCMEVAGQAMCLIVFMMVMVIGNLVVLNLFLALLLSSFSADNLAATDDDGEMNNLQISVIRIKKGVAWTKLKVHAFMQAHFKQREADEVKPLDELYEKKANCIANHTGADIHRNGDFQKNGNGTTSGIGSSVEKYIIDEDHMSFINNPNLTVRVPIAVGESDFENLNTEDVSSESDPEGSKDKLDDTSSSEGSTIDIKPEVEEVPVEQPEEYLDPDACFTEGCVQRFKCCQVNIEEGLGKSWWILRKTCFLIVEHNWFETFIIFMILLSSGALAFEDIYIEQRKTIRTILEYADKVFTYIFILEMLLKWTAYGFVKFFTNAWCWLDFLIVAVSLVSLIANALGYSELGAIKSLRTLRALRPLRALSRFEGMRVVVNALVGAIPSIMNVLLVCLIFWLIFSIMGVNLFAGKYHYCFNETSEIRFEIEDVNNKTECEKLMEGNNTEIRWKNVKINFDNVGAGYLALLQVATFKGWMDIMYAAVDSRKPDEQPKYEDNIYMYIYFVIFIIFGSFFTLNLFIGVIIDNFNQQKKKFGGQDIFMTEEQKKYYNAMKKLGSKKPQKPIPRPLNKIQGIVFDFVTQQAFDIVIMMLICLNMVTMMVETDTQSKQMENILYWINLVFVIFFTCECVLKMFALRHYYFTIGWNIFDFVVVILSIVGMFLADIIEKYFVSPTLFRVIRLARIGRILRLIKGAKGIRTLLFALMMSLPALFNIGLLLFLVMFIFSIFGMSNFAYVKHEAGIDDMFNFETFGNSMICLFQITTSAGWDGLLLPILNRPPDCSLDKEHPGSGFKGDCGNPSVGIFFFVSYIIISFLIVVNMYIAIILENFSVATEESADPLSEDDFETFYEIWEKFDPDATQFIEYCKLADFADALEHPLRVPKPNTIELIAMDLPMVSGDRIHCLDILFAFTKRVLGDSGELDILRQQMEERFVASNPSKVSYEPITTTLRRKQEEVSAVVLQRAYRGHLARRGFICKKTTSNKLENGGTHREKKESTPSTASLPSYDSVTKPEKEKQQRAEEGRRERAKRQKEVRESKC

GPQCQKWMQTCDAERKCCEGFSCTLWCKKKLW-NH2 [NV1D2974-NH2]
selectivity towards Nav1.7 compared to recombinant Protoxin-II [1]: improved selectivity

GPACQKWMQTCDANRKCCEGFSCRLWCKKKLW-OH (cysteine pairing not given here) [NV1D3587]
selectivity towards Nav1.7 compared to recombinant Protoxin-II [1]: improved selectivity

GPQCQKWMQTCDAERKCCEGFVCRLWCKKKLW-OH (cysteine pairing not given here) [NV1D2775]
anti-hyperalgesic effect first seen, time post-pump implantation [2]: 4 h
thermal latency returned to the control level, time post pump implantation [2]: ≤ 48 h
time at which the effect reached the maximum, thermal test [2]: 8 h
CFA-induced thermal hyperalgesia (thermal latency, Hargreaves test) [2]: reached values close to the cut-off
tactile threshold returned to the control level, time post pump implantation [3]: ≤ 48 h
time at which the effect reached the maximum, tactile test [3]: 8 h
analgesia in the mouse hotplate test (FIG. 8) [4]: significant analgesia
hotplate latency ([4]; mouse): reached values near cut-off
analgesia (thermal withdrawal latency) in the carrageenan study [5]: significant analgesia
tail flick test latency [6]: significant efficacy
hot plate test latency [7]: significant efficacy
formalin test flinches [8]: significant efficacy

GPQCQKWMQTCDRERKCCEGFVCTLWCRKKLW-NH-methyl [NV1D3034-NH-methyl]
selectivity towards Nav1.7 compared to recombinant Protoxin-II [1]: improved selectivity
CFA-induced thermal hyperalgesia [2]: readily reversed

Ac-QCQKWMQTCDAERKCCEGFSCTLWCKKKLW-NH2 [(-GP) N-Ac-NV1D2974-NH2]
selectivity towards Nav1.7 compared to recombinant Protoxin-II [1]: improved selectivity

GPACQKWMQTCDRNRKCCEGFVCTLWCRKKLW-OH (cysteine pairing not given here) [NV1D3541]
selectivity towards Nav1.7 compared to recombinant Protoxin-II [1]: improved selectivity

GPQCQKWMQTCDRERKCCQGFVCTLWCRKKLW-OH (cysteine pairing not given here) [NV1D3388]
selectivity towards Nav1.7 compared to recombinant Protoxin-II [1]: improved selectivity

Ac-QCQKWMQTCDRERKCCEGFVCTLWCRKKLW-NH2 [(-GP) N-Ac-NV1D3034-NH2]
selectivity towards Nav1.7 compared to recombinant Protoxin-II [1]: improved selectivity

GPQCQKWMQTCDAERKCCEGFSCTLWCKKKLW-OH (cysteine pairing not given here) [NV1D2974]
selectivity towards Nav1.7 compared to recombinant Protoxin-II [1]: improved selectivity

recombinant Protoxin-II (peptide)
IC50 (QPatch electrophysiology assay) [9]: 6.2e-08 M
ratio of IC50 for Nav1.6 to IC50 for Nav1.7 (QPatch) [9]: 28 fold

GPYCQKWMQTCDANRKCCEGFSCRLWCKKKLW-NH2 [NV1D3586-NH2]
selectivity towards Nav1.7 compared to recombinant Protoxin-II [1]: improved selectivity

GPQCQKWMQSCDRERKCCEGFVCTLWCRKKLW-OH (cysteine pairing not given here) [NV1D3359]
selectivity towards Nav1.7 compared to recombinant Protoxin-II [1]: improved selectivity

GPQCQKWMQTCDRERKCCEGFVCTLWCRKKLW-OH (cysteine pairing not given here) [NV1D3034]
CFA-induced thermal hyperalgesia (thermal latency, Hargreaves test) [2]: completely reversed
tail flick test latency [6]: significant efficacy
hot plate test latency [7]: significant efficacy
formalin test flinches [8]: significant efficacy

GPYCQKWMQTCDANRKCCEGFSCRLWCKKKLW-OH (cysteine pairing not given here) [NV1D3586]
selectivity towards Nav1.7 compared to recombinant Protoxin-II [1]: improved selectivity

GPQCQKWMQTCDRNRKCCEGFVCTLWCRKKLW-OH (cysteine pairing not given here) [NV1D3044]
selectivity towards Nav1.7 compared to recombinant Protoxin-II [1]: improved selectivity

GPQCQKWMQTCDAERKCCEGFVCRLWCKKKLW-NH2 [NV1D2775-NH2]
selectivity towards Nav1.7 compared to recombinant Protoxin-II [1]: improved selectivity

GPQCQKWMQTCDRERKCCEGFVCTLWCRKKLW-NH-butyl [NV1D3034-NH-butyl]
selectivity towards Nav1.7 compared to recombinant Protoxin-II [1]: improved selectivity

wild type Protoxin-II (peptide)
IC50 (FLIPR assay, veratridine-induced membrane depolarization) [10]: 4 nM

GPQCQKWMQTCDRTRKCCEGFVCTLWCRKKLW-NH2 [NV1D3368-NH2]
selectivity towards Nav1.7 compared to recombinant Protoxin-II [1]: improved selectivity
CFA-induced thermal hyperalgesia [2]: readily reversed

GPQCQKWMQTCDRERKCCEGFVCTLWCRKKLWGSAPAPAPAPAPGSCCNCSSKWCRDHSRCC [NV1D3799]
hNav1.7 QP % blk [11]: 22.2% @ 30 nM

GPQCQKWMQTCDRERKCCEGFVCTLWCRKKLW-NH2 [NV1D3034-NH2]
selectivity towards Nav1.7 compared to recombinant Protoxin-II [1]: improved selectivity

GPQCQKWMQTCDRTRKCCEGFVCTLWCRKKLW-OH (cysteine pairing not given here) [NV1D3368]
selectivity towards Nav1.7 compared to recombinant Protoxin-II [1]: improved selectivity
CFA-induced thermal hyperalgesia (thermal latency, Hargreaves test) [2]: fully reversed

GPQCQKWMQTCDARRKCCEGFVCRLWCKKKLW-OH (cysteine pairing not given here) [NV1D3006]
hNav1.7 QP % blk [11]: 52.3% @ 10 nM
